Test results as given in patent US20250092039A1, “GLUTARIMIDE-CONTAINING PAN-KRAS-MUTANT DEGRADER COMPOUNDS AND USES THEREOF” (Tiger Biotherapeutics Inc., priority 2022, published 2025).

Tests used:
SW620 cells = test: 3D cell growth inhibition of SW620 cells carrying endogenous KRAS G12V mutation (CellTiter-Glo 3D, GI50); assay type: cell-based; details: Homo sapiens, SW-620, 144 h; SW620 cells, 6 days; read-out: SW620 3D cell growth GI50
Summary of the method: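 SW620 cells (endogenous KRAS G12V) grown in 3D were dosed next day with compound from DMSO stocks at various concentrations, then incubated 6 days at 37° C.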

KRAS G12V = KRAS G12V (Homo sapiens (Human), UniProt P01116, G12V); test: KRAS G12V degradation in SW620 cells (Western blot, DC50); assay type: cell-based; details: 24 hours
Summary of the method: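 SW620 cells (homozygous KRAS G12V) were treated with compound for 24 hours at 37° C. KRAS in lysates was measured by Western blot with fluorescent secondary antibodies and expressed relative to DMSO vehicle (100%). DC50 came from a four-parameter variable-slope dose-response fit.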

[1] = Pharmacokinetics following single intravenous and oral gavage dosing (AUC0-24h); assay type: in vivo; details: mouse, plasma, male CD-1 mice
Method: Compounds disclosed herein were studied for animal tolerability and pharmacokinetics following single intravenous (iv) and oral gavage (po) dosing to male CD-1 mice. For each compound in each dosing route, 3 mice were used with iv dosing volume of 5 mL/kg and po dosing volume of 10 mL/kg. The compounds were formulated in 10% DMSO, 30% PEG400, 60% aqueous solution containing 20% 2-hydroxypropyl-β-cyclodextrin. Blood sampling time points for iv dosing were 0.083, 0.25, 0.5, 1, 2, 4, 8 and 24 h. The sampling time points for po dosing were 0.25, 0.5, 1, 2, 4, 6, 8 and 24 h. Mice activities were monitored and recorded immediately following the dosing. The prepared plasma samples were analyzed using LC/MS/MS on AB Sciex Triple Quad 5500+ system. The PK parameters were determined by non-compartmental analysis using WinNonlin (Version 8.0).

KRAS-G12V/RAF1 = KRAS-G12V/RAF1 (Homo sapiens (Human), UniProt P01116, G12V); test: KRAS/RAF1 binding inhibition assay (AlphaScreen)
Summary of the method: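 Binding of GppNHp-loaded KRAS G12V to the RAF1 RBD was measured by AlphaScreen with test compound present in 2% DMSO (final), 60 min incubation at 4° C. Signals were converted to % inhibition versus DMSO, and IC50 was obtained by variable-slope nonlinear regression.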

Chain of KRAS G12V (P01116-2 other isoform, or with tags, fused parts or gaps G12V): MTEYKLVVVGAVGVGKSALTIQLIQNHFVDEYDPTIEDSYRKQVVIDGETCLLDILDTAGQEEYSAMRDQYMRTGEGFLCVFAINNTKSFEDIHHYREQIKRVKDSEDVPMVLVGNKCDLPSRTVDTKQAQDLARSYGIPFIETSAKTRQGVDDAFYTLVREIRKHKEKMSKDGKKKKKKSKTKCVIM
Chain of KRAS-G12V/RAF1 (P01116-2 other isoform, or with tags, fused parts or gaps G12V): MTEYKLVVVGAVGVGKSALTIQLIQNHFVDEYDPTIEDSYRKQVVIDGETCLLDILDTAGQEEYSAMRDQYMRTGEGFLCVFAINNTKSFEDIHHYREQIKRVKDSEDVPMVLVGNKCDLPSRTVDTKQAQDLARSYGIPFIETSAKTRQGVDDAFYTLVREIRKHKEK

Compound	GI50 (SW620 cells) [nM]	DC50 (KRAS G12V) [nM]	AUC(0-t) ([1]; single oral dose 30 mg/Kg) [ng·h/mL]	IC50 (KRAS-G12V/RAF1) [nM]	AUC(0-t) ([1]; single oral dose 15 mg/Kg) [ng·h/mL]
CCc1c(F)ccc2cc(O)cc(-c3ncc4c(N5CCC[C@]6(CCO6)C5)nc(OCC5(CN6CCC7(CC6)CC(F)(CN6CCN(c8cc(F)c(C9CCC(=O)NC9=O)c(F)c8)CC6)C7)CC5)nc4c3F)c12 (stereo partly drawn) [Compound 215, 3-(4-(4-((7-((1-(((7-(8-ethyl-7-fluoro-3-hydroxynaphthalen-1-yl)-8-fluoro-4-((S)-1-oxa-6-azaspiro[3.5]nonan-6-yl)pyrido[4,3-d]pyrimidin-2-yl)oxy)methyl)cyclopropyl)methyl)-2-fluoro-7-azaspiro[3.5]nonan-2-yl)methyl)piperazin-1-yl)-2,6-difluorophenyl)piperidine-2,6-dione]	< 10	< 1	4710	20 to 200	
CCc1c(F)ccc2cc(O)cc(-c3ncc4c(N5CCC[C@@](C)(O)C5)nc(OCC5(CN6CCC7(CC6)CC(CN6CCN(c8cc(F)c(C9CCC(=O)NC9=O)c(F)c8)CC6)C7)CC5)nc4c3F)c12 (stereo partly drawn) [Compound 49, 3-(4-(4-((7-((1-(((7-(8-ethyl-7-fluoro-3-hydroxynaphthalen-1-yl)-8-fluoro-4-((R)-3-hydroxy-3-methylpiperidin-1-yl)pyrido[4,3-d]pyrimidin-2-yl)oxy)methyl)cyclopropyl)methyl)-7-azaspiro[3.5]nonan-2-yl)methyl)piperazin-1-yl)-2,6-difluorophenyl)piperidine-2,6-dione]	< 10	< 1	3170	20 to 200	
CCc1c(F)ccc2cc(O)cc(-c3ncc4c(N5CCC[C@]6(CCO6)C5)nc(OCC5(CN6CCC(F)(CN7CCN(c8ccc9c(c8)CN([C@H]8CCC(=O)NC8=O)C9=O)CC7)CC6)CC5)nc4c3F)c12 [Compound 86, (S)-3-(5-(4-((1-((1-(((7-(8-ethyl-7-fluoro-3-hydroxynaphthalen-1-yl)-8-fluoro-4-((S)-1-oxa-6-azaspiro[3.5]nonan-6-yl)pyrido[4,3-d]pyrimidin-2-yl)oxy)methyl)cyclopropyl)methyl)-4-fluoropiperidin-4-yl)methyl)piperazin-1-yl)-1-oxoisoindolin-2-yl)piperidine-2,6-dione]	< 10	< 1	1320	20 to 200	
CCc1c(F)ccc2cc(O)cc(-c3ncc4c(N5CCCC6(CCO6)C5)nc(OCC5(CN6CCC(F)(CN7CCN(c8ccc9c(c8)CN([C@H]8CCC(=O)NC8=O)C9=O)CC7)CC6)CC5)nc4c3F)c12 (stereo partly drawn) [Compound 41, (3S)-3-(5-(4-((1-((1-(((7-(8-ethyl-7-fluoro-3-hydroxynaphthalen-1-yl)-8-fluoro-4-(1-oxa-6-azaspiro[3.5]nonan-6-yl)pyrido[4,3-d]pyrimidin-2-yl)oxy)methyl)cyclopropyl)methyl)-4-fluoropiperidin-4-yl)methyl)piperazin-1-yl)-1-oxoisoindolin-2-yl)piperidine-2,6-dione]	< 10	1 to 10	1850	20 to 200	
CCc1c(F)ccc2cc(O)cc(-c3ncc4c(N5CCC[C@@](C)(O)C5)nc(OCC5(CN6CC7(CCC(N8CCN(c9cc(F)c(C%10CCC(=O)NC%10=O)c(F)c9)CC8)CC7)C6)CC5)nc4c3F)c12 (stereo partly drawn) [Compound 60, 3-(4-(4-(2-((1-(((7-(8-ethyl-7-fluoro-3-hydroxynaphthalen-1-yl)-8-fluoro-4-((R)-3-hydroxy-3-methylpiperidin-1-yl)pyrido[4,3-d]pyrimidin-2-yl)oxy)methyl)cyclopropyl)methyl)-2-azaspiro[3.5]nonan-7-yl)piperazin-1-yl)-2,6-difluorophenyl)piperidine-2,6-dione]	< 10	< 1	1780	20 to 200	
CCc1c(F)ccc2cc(O)cc(-c3ncc4c(N5CCC[C@]6(CCO6)C5)nc(OCC5(CN6CCC(C)(CN7CCN(c8ccc9c(c8)CN([C@H]8CCC(=O)NC8=O)C9=O)CC7)CC6)CC5)nc4c3F)c12 [Compound 217, (S)-3-(5-(4-((1-((1-(((7-(8-ethyl-7-fluoro-3-hydroxynaphthalen-1-yl)-8-fluoro-4-((S)-1-oxa-6-azaspiro[3.5]nonan-6-yl)pyrido[4,3-d]pyrimidin-2-yl)oxy)methyl)cyclopropyl)methyl)-4-methylpiperidin-4-yl)methyl)piperazin-1-yl)-1-oxoisoindolin-2-yl)piperidine-2,6-dione]	< 10	< 1		20 to 200	977
CCc1cccc2cc(O)cc(-c3ncc4c(N5CCC[C@@](C)(O)C5)nc(OCC5(CN6CCC(F)(CN7CCN(c8ccc9c(c8)CN([C@H]8CCC(=O)NC8=O)C9=O)CC7)CC6)CC5)nc4c3F)c12 [Compound 33, (S)-3-(5-(4-((1-((1-(((7-(8-ethyl-3-hydroxynaphthalen-1-yl)-8-fluoro-4-((R)-3-hydroxy-3-methylpiperidin-1-yl)pyrido[4,3-d]pyrimidin-2-yl)oxy)methyl)cyclopropyl)methyl)-4-fluoropiperidin-4-yl)methyl)piperazin-1-yl)-1-oxoisoindolin-2-yl)piperidine-2,6-dione]	< 10	< 1	509	20 to 200	
CCc1c(F)ccc2cc(O)cc(-c3ncc4c(N5CCC[C@@](C)(O)C5)nc(OCC5(CN6CCC(C)(CN7CC8(CCN(c9ccc%10c(c9)CN([C@H]9CCC(=O)NC9=O)C%10=O)CC8)C7)CC6)CC5)nc4c3F)c12 [Compound 40, (3S)-3-(5-(2-[(1-{[1-({[7-(8-ethyl-7-fluoro-3-hydroxynaphthalen-1-yl)-8-fluoro-4-[(3R)-3-hydroxy-3-methylpiperidin-1-yl]pyrido[4,3-d]pyrimidin-2-yl]oxy}methyl)cyclopropyl]methyl}-4-methylpiperidin-4-yl)methyl]-2,7-diazaspiro[3.5]nonan-7-yl}-1-oxo-3H-isoindol-2-yl)piperidine-2,6-dione]	< 10	< 1	652	< 20	
CCc1c(F)ccc2cc(O)cc(-c3ncc4c(N5CCC[C@@](C)(O)C5)nc(OCC5(CN6CCC(C)(CN7CCC(N8CCN(c9ccc%10c(c9)CN([C@H]9CCC(=O)NC9=O)C%10=O)CC8)CC7)CC6)CC5)nc4c3F)c12 [Compound 213, (S)-3-(5-(4-(1-((1-((1-(((7-(8-ethyl-7-fluoro-3-hydroxynaphthalen-1-yl)-8-fluoro-4-((R)-3-hydroxy-3-methylpiperidin-1-yl)pyrido[4,3-d]pyrimidin-2-yl)oxy)methyl)cyclopropyl)methyl)-4-methylpiperidin-4-yl)methyl)piperidin-4-yl)piperazin-1-yl)-1-oxoisoindolin-2-yl)piperidine-2,6-dione]	< 10	< 1	1360	< 20	
CCc1c(F)ccc2cc(O)cc(-c3ncc4c(N5CCC[C@@](C)(O)C5)nc(OCC5(CN6CCC(F)(CN7CCN(c8ccc9c(c8)CN([C@H]8CCC(=O)NC8=O)C9=O)CC7)CC6)CC5)nc4c3F)c12 [Compound 8, (S)-3-(5-(4-((1-((1-(((7-(8-ethyl-7-fluoro-3-hydroxynaphthalen-1-yl)-8-fluoro-4-((R)-3-hydroxy-3-methylpiperidin-1-yl)pyrido[4,3-d]pyrimidin-2-yl)oxy)methyl)cyclopropyl)methyl)-4-fluoropiperidin-4-yl)methyl)piperazin-1-yl)-1-oxoisoindolin-2-yl)piperidine-2,6-dione]	< 10	< 1	3420	20 to 200	
CCc1c(F)ccc2cc(O)cc(-c3ncc4c(N5CCC[C@@](C)(O)C5)nc(OCC5(CN6CCC(OC7CCC8(CC7)CN(c7ccc9c(c7)CN(C7CCC(=O)NC7=O)C9=O)C8)CC6)CC5)nc4c3F)c12 (stereo partly drawn) [Compound 184, 3-[5-[7-[[1-[[1-[[7-(8-ethyl-7-fluoro-3-hydroxy-1-naphthyl)-8-fluoro-4-[(3R)-3-hydroxy-3-methyl-1-piperidyl]pyrido[4,3-d]pyrimidin-2-yl]oxymethyl]cyclopropyl]methyl]-4-piperidyl]oxy]-2-azaspiro[3.5]nonan-2-yl]-1-oxo-isoindolin-2-yl]piperidine-2,6-dione]	< 10	< 1	12500	> 200	
CCc1c(F)ccc2cc(O)cc(-c3ncc4c(N5CCC[C@]6(CCO6)C5)nc(OCC5(CN6CCC7(CCC(N8CCN(c9ccc%10c(c9)CN([C@H]9CCC(=O)NC9=O)C%10=O)CC8)CC7)CC6)CC5)nc4c3F)c12 [Compound 219, (S)-3-(5-(4-(3-((1-(((7-(8-ethyl-7-fluoro-3-hydroxynaphthalen-1-yl)-8-fluoro-4-((S)-1-oxa-6-azaspiro[3.5]nonan-6-yl)pyrido[4,3-d]pyrimidin-2-yl)oxy)methyl)cyclopropyl)methyl)-3-azaspiro[5.5]undecan-9-yl)piperazin-1-yl)-1-oxoisoindolin-2-yl)piperidine-2,6-dione]	< 10	< 1	718	< 20	
